From patent US20230322815A1, “NOVEL COMPOUNDS AND THERAPEUTIC USES THEREOF” (University of Huddersfield, priority 2020, published 2023)

Assays:
[1] = Dephosphorylation of purified phosphorylated AMPK peptide
Procedure: Unless otherwise stated, all solvents and materials were purchased from either Sigma Aldrich, Fisher Scientific or Fluorochem and were used without further purification. ^1H, ^13C, DEPT-135 and DEPT-90 NMR data was recorded on either a Bruker Fourier 300 MHz or Bruker Avance III (AVIII) 400 MHz spectrometer or a Bruker Avance Neo 600 MHz NMR spectrometer. Mass spectra were obtained on an Agilent 6210 TOF MS with electrospray ionisation operating in positive ion mode and mass spectra of metal complexes were obtained on a Bruker Micro TOF-q LC mass spectrometer with electrospray ionisation operating in positive ion mode. Phosphorylated ‘SAMS’ peptide HMRSAMS*GLHLVKRR (phosphorylated on the serine residue) was obtained from PeptideSynthetics, Peptide Protein Research Ltd (>95% purity).
There are several potential mechanisms which could lead the observed kinase inhibition ‘readout’ of this screen including, i) direct ATP hydrolysis by the complex(es) and differing Km of the kinases for ATP, and, ii) dephosphorylation of the peptide substrate by the phosphatase activity of the Zn^2+ complex resulting in cycles of peptide phosphorylation by active recombinant enzyme and dephosphorylation by the complex.

[2] = test system: recombinant AMPK (AMPKα p-T172); test: Western blot of purified recombinant kinase after exposure to complex; format: biochemical, human; settings: 50 μM complex, 4 hours, in the presence of ATP
Procedure: FIG. 10. Western blot analysis of purified recombinant Src and AMPK following exposure to [L2Zn3]^6+ and [L2Cu3]^6+. Purified enzymes were incubated with complexes (50 μM) for 4 hours in the presence of ATP prior to analysis.
Protein lysates and recombinant proteins were resolved on 15% SDS polyacrylamide gels. Proteins were electroblotted onto nitrocellulose membrane by wet transfer in 1×Tris Glycine buffer (Biorad) at 35 mA overnight at room temperature (Allison et al., 2014). After blocking of membranes, these were incubated with primary antibody overnight at 4° C. before addition of rabbit or mouse secondary antibody (HRP-conjugated) for 1 h at room temperature and development of blots by enhanced chemiluminescence. […] Quantification of signals was performed by densitometry using Image J software.
To investigate these hypotheses further, regulatory phospho-amino acids of two key kinases identified by the kinase screen, AMPK and Src, were analysed following incubation of the recombinant kinases with Zn^2+ or Cu^2+ complexes.

HT29 tumors = test: Chick embryo chorioallantoic membrane (CAM) assay, in ovo efficacy; format: in vivo, human tumor cells on chick embryo CAM; settings: for dose giving statistically significant regression of tumor growth (mean tumor weight at E18), comparable to SoC: L2Zn3 26.6, 53.2, 106.4 μM, L2Cu3 23.8, 65.7, 131.46 μM, SoC doxorubicin; for HT29 tumor cell metastasis to the lower CAM: any of the tested doses, data not shown
Procedure: FIG. 23. Activity of [L2Cu3]^6+ and [L2Zn3]^6+ against primary HT29 tumors. The results presented represent the mean tumour weight ±SEM following treatment at 3 different doses of [L2Cu3]^6+ and [L2Zn3]^6+: L2Zn3 [1]=26.6 μM, L2Zn3 [2]=53.2 μM, L2Zn3 [3]=106.4 μM; L2Cu3 [1]=23.8 μM, L2Cu3[2]=65.7 μM, L2Cu3[3]=131.46 μM. SoC doxorubicin. Statistical analysis by one way ANOVA (*): 0.05≥p value >0.01; (**): 0.01≥p value >0.001; (***): 0.001≥p value; (****): 0.0001≥p value. Number per experimental group n=10-14.
[L2Cu3]^6+ and [L2Zn3]^6+ were evaluated at three different doses for in ovo anti-cancer activity, toxicity and anti-metastatic activity against tumors initiated from three different human cancer cell line models (H460, HT29, HCT116), in the chick embryo chorioallantoic membrane (CAM) assay.
Each compound was provided to the contract research organisation (CRO) Inovotion (La Tronche, France) conducting the in ovo study, as a powder pre-weighed in single vials (2 equivalents of ligand, 3 equivalents of metal; and stored at room temperature). Before use, this was then dissolved in DMSO to 50 mM to generate a stock solution and further freshly diluted in RPM11640 or McCoys aqueous cell culture media for administration.
A standard of care (SoC) drug for the particular tumour type was tested concurrently as a comparative control for in vivo efficacy and toxicity evaluation. A solvent control served as a negative control for both SoC and experimental compounds.
(§1) 10^6 tumor cells (H460, HT29 or HCT116) were grafted onto the upper chorioallantoic membrane (CAM) of the developing chick embryo on embryonic day 9 (E9). Access to the upper CAM was through a small hole drilled through the eggshell of fertilized White Leghorn eggs (into the air sac) on E9 (15 eggs per experimental group).
(§2) 100 μl of freshly prepared experimental compound, vehicle control or standard-of-care (SoC) drug at their working concentrations were pipetted onto the tumor graft at E11, E13, E15 and E17. On day E18, the upper CAM (with tumor) was removed, washed by PBS buffer and then directly transferred in PFA (fixation for 48 hrs). After that, tumors were carefully cut away from normal CAM tissue and weighed.
On day E18, a 1 cm^2 portion of the lower CAM was collected (n=8 per group), stored at −20° C. and later processed to extract DNA. Samples were analysed for human genomic DNA (qPCR for Alu sequences) as a quantitative marker of tumor metastasis to the lower CAM.

chick embryo = test: Embryonic toxicity, H460 in ovo study; format: in vivo, chick (White Leghorn); settings: for embryo tolerability: all doses tested, no statistically significant difference to solvent control; for % Alive / % Dead / Alive (embryos at E18) / Dead (embryos at E18): H460 study
Procedure: as §1, §2
Embryonic viability was checked daily. The number of dead embryos was also counted on E18, to evaluate treatment-induced embryo toxicity.

[3] = dose [1]: L2Zn3 54 μM, L2Cu3 42 μM
[4] = dose [2]: L2Zn3 108 μM, L2Cu3 84 μM
[5] = dose [3]: L2Zn3 216 μM, L2Cu3 168 μM

[Zn+2].[Zn+2].[Zn+2].c1ccc(-c2csc(NCCN(CCNc3nc(-c4ccccn4)cs3)CCNc3nc(-c4ccccn4)cs3)n2)nc1.c1ccc(-c2csc(NCCN(CCNc3nc(-c4ccccn4)cs3)CCNc3nc(-c4ccccn4)cs3)n2)nc1 [[L2Zn3]^6+]
dephosphorylation of phosphorylated AMPK peptide [1]: neither complex resulted in dephosphorylation | AMPKα p-T172 levels by immunoblotting [2]: significantly reduced p-T172 levels | dose giving statistically significant regression of tumor growth (mean tumor weight at E18), comparable to SoC (HT29 tumors): highest tested dose | HT29 tumor cell metastasis to the lower CAM (HT29 tumors): no reduction | embryo tolerability (chick embryo): well tolerated | % Alive (chick embryo; [3]): 92.86% | % Dead (chick embryo; [3]): 7.14% | Alive (embryos at E18) (chick embryo; [3]): 13 | Dead (embryos at E18) (chick embryo; [3]): 1 | % Alive (chick embryo; [4]): 76.92% | % Dead (chick embryo; [4]): 23.08% | Alive (embryos at E18) (chick embryo; [4]): 10 | Dead (embryos at E18) (chick embryo; [4]): 3 | % Alive (chick embryo; [5]): 90.91% | % Dead (chick embryo; [5]): 9.09% | Alive (embryos at E18) (chick embryo; [5]): 10 | Dead (embryos at E18) (chick embryo; [5]): 1

[Cu+2].[Cu+2].[Cu+2].c1ccc(-c2csc(NCCN(CCNc3nc(-c4ccccn4)cs3)CCNc3nc(-c4ccccn4)cs3)n2)nc1.c1ccc(-c2csc(NCCN(CCNc3nc(-c4ccccn4)cs3)CCNc3nc(-c4ccccn4)cs3)n2)nc1 [[L2Cu3]^6+]
dephosphorylation of phosphorylated AMPK peptide [1]: neither complex resulted in dephosphorylation | AMPKα p-T172 levels by immunoblotting [2]: significantly reduced p-T172 levels | dose giving statistically significant regression of tumor growth (mean tumor weight at E18), comparable to SoC (HT29 tumors): highest tested dose | HT29 tumor cell metastasis to the lower CAM (HT29 tumors): no reduction | embryo tolerability (chick embryo): well tolerated | % Alive (chick embryo; [3]): 85.71% | % Dead (chick embryo; [3]): 14.29% | Alive (embryos at E18) (chick embryo; [3]): 12 | Dead (embryos at E18) (chick embryo; [3]): 2 | % Alive (chick embryo; [4]): 92.86% | % Dead (chick embryo; [4]): 7.14% | Alive (embryos at E18) (chick embryo; [4]): 13 | Dead (embryos at E18) (chick embryo; [4]): 1 | % Alive (chick embryo; [5]): 85.71% | % Dead (chick embryo; [5]): 14.29% | Alive (embryos at E18) (chick embryo; [5]): 12 | Dead (embryos at E18) (chick embryo; [5]): 2
